Source: US20150064109A1, “Quantified differentiation and identification of changes in tissue by enhancing differences in blood flow and metabolic activity” (priority 2013, published 2015)

Key:
breast tissue [1] = experiment: Study 1: sestamibi breast imaging, maximal count activity (MCA) with Miraluma, SDD and HDD (B.E.S.T.) in ten women; format: in vivo, human; conditions: for MCA counts, Cancer: breast cancer tissue; for MCA counts, Inflamatory States: inflammatory breast tissue; for tissue differentiation: outcome in words, referring to FIG. 3 and Table 1
Experimental: Two sestamibi imaging studies were conducted. […] The results were also compared with biopsy data. All 10 women in the study had either an abnormality on mammography or a detectable lump on physical examination.
Subjects undergoing breast imaging arrived in the fasting state 15-30 minutes prior to the study. […] The IV was placed in the contralateral arm if there is a specific question regarding a specific breast. Sestamibi was administered intravenously four minutes into the study followed by a 10-20 cc normal saline flush to assure delivery of the isotope into the venous system, with imaging of the breast beginning ten minutes into the study. A SPECT camera was positioned in a stationary (planar) position for each of the images.
Breast imaging began with the patient placed in a prone position on top of a 6-inch foam pad designed to enhance the comfort of the patient while improving breast imaging. Each side of the 6-inch pad had breast inserts held in place by hook and loop-type adhesive strips, which were removed allowing each breast to be positioned through the openings in a dependent manner without breast compression. Planar breast imaging began with the BrQL breast (lateral view of breast in question or the right breast if neither breast was specifically suspected of having an abnormality), then the BrCL breast (lateral view of the breast contralateral to BrQL). Patients were then placed on their back for the anterior (BrAS) image of both breasts. Any areas of special concern, PO BrQ1 (posterior oblique view of 1st breast noted to have abnormal activity on initial views) and PO BrQ2 (posterior oblique view of the other breast if its activity is abnormal) were then imaged.
All images were acquired while the patient was prone, except for the anterior (BrAS) image, which was obtained while the patient was supine.
Breast image acquisition and reconstruction was performed using a Siemens orbiter Single Photon Emission Computed Tomography (SPECT) camera with 75 photomultiplier tubes (PMTs) and a 128 by 128 matrix, available from Siemens Medical Solutions, Malvern, Pa. The images were acquired with the camera head in a stationary (planar) position. The camera, computer and software providing quantification of maximal count activity (MCA) were supplied by NC Systems of Boulder, Colo. A low-energy high-resolution (LEHR) collimator was used providing a resolution of 3.4 mm.
(§1) Subjects arrive in a fasting state 15-30 minutes prior to the study. An 18-20 gauge intravenous catheter was placed either in the right antebrachium, or in the left antebrachium. The IV was placed in the contralateral arm if a specific breast was the breast in question. […] The catheter was flushed with 10-20 cc of normal saline immediately after the HDD had been given to assure introduction of all of the HDD into the venous system. […] Anterior images were obtained with the patient in a supine position.
(§2) An example of the blue-green format is shown in FIG. 2a, juxtaposed with resting images.
Following the image reconstruction and presentation of each breast image, the region of greatest maximal activity (MCA) was determined and “quantified.” MCA is a measure of detected radiation (gamma) emission acquired by the SPECT camera during the imaging process and reflects the amount of isotope present at any given time within the tissue of interest. See Fleming R M, Dooley W C, Boyd L B, Kubovy C, “Breast Enhanced Scintigraphy Testing (B.E.S.T.)—Increased accuracy in detecting breast cancer accomplished by combining breast and cardiac imaging,” 48th Annual Scientific Session of the Society of Nuclear Medicine, Toronto, Ontario, Canada, 26 Jun. 2001, the disclosure of which is incorporated herein by this reference. […] All readings and determination of MCA were determined for each breast prior to any knowledge of clinical, mammographic or pathologic information, which could in any way bias the results.

breast tissue [2] = experiment: Study 2: B.E.S.T. (HDD-enhanced sestamibi) breast imaging, MCA compared with histopathology in 195 individuals; format: in vivo, human; conditions: mean ± SD; for MCA quantitative counts, Cancer: breast cancer (n=15); for MCA quantitative counts, Atypia (Pre-cancerous): cellular atypia (15 individuals); for MCA quantitative counts, Inflammatory States: inflammatory changes (n=77); for MCA quantitative counts, Normal: normal breast tissue (n=88)
From the text: Tissue samples were obtained either through ductoscopy, fine needle aspiration or open biopsy and were interpreted by pathologists without knowledge of the sestamibi image results. Results were interpreted as being normal, inflammatory (including trauma, injury, infection, fibrocystic disease, radiation exposure and subsequent injury), atypia (with increasing order of cellular change progressing from hyperplasia to metaplasia/atypia to ductal carcinoma in situ) and cancer.
In a second study, one hundred and ninety five (195) (4 men, 191 women) individuals were studied using the enhanced (HDD) imaging approach. The study included four men having detectable breast lumps and 191 women, including 58 seeking additional information regarding breast disease concerns, and 133 with breast lumps and/or abnormal mammograms. The results of this study were also compared with biopsy data.
as §1, §2
Following the image reconstruction and presentation of each breast image, the region of greatest maximal activity (MCA) was determined and “quantified.” MCA is a measure of detected radiation (gamma) emission acquired by the SPECT camera during the imaging process and reflects the amount of isotope present at any given time within the tissue of interest. See Fleming R M, Dooley W C, Boyd L B, Kubovy C, “Breast Enhanced Scintigraphy Testing (B.E.S.T.)—Increased accuracy in detecting breast cancer accomplished by combining breast and cardiac imaging,” 48th Annual Scientific Session of the Society of Nuclear Medicine, Toronto, Ontario, Canada, 26 Jun. 2001, the disclosure of which is incorporated herein by this reference. […] All readings and determination of MCA were determined for each breast prior to any knowledge of clinical, mammographic or pathologic information, which could in any way bias the results. These procedures were performed at a recognized Center of Excellence for Nuclear Procedures under the direct supervision of a physician Boarded in Nuclear Imaging.
The outcomes of histopathologic specimens were compared with the MCA derived from sestamibi imaging. Descriptive statistical analysis of the MCAs were determined including mean±standard deviations and confidence intervals (CI) for the mean. Group comparisons were made using two-tailed t-tests to determine statistical differences defined as p-values of ≦0.05. Graphic representation of the means is shown for comparison purposes as well as raw data comparison for the histopathologic categories.

mitochondria = conditions: energy dependent manner; cited from earlier work

SMILES	MCA counts, Cancer (breast tissue [1]; mean ± SD, Study 1) [counts]	MCA counts, Cancer (breast tissue [1]; mean ± SD, Study 1, listed as B.E.S.T.©) [counts]	MCA counts, Inflamatory States (breast tissue [1]; mean ± SD, Study 1) [counts]	MCA counts, Normal (breast tissue [1]; normal breast tissue, mean ± SD, sestamibi 25-30 mCi iv, Study 1) [counts]	tissue differentiation (breast tissue [1]; listed as HDD)	MCA quantitative counts, Cancer (breast tissue [2]; listed as B.E.S.T. ©) [counts]	MCA quantitative counts, Cancer (breast tissue [2]; listed as B.E.S.T.©) [counts]	MCA quantitative counts, Atypia (Pre-cancerous) (breast tissue [2]; listed as B.E.S.T. ©) [counts]	MCA quantitative counts, Atypia (Pre-cancerous) (breast tissue [2]; listed as B.E.S.T.©) [counts]	MCA quantitative counts, Inflammatory States (breast tissue [2]; listed as B.E.S.T. ©) [counts]	MCA quantitative counts, Inflammatory States (breast tissue [2]; listed as B.E.S.T.©) [counts]	MCA quantitative counts, Normal (breast tissue [2]; listed as B.E.S.T. ©) [counts]	MCA quantitative counts, Normal (breast tissue [2]; listed as B.E.S.T.©) [counts]	tissue differentiation (breast tissue [1])	sestamibi taken up by mitochondria (mitochondria)
OCCN(CCO)c1nc(N2CCCCC2)c2nc(N(CCO)CCO)nc(N3CCCCC3)c2n1 [HDD/B.E.S.T. ©, dipyridamole]	442.0 ± 5.7	442.0±5.7	228.8 ± 24.0	125.5 ± 31.5	statistically significant at differentiating tissue types	445.3 ± 83.3	445.3±83.3	307.7 ± 29.3	307.7±29.3	218.0 ± 40.3	218.0±40.3	145 ± 29.1	145.0±29.1		
OCCN(CCO)c1nc(N2CCCCC2)c2nc(N(CCO)CCO)nc(N3CCCCC3)c2n1 [SDD, dipyridamole]	285.8 ± 17.0		183.5 ± 19.0											useless in tissue differentiation	
[99Tc+].[C-]#[N+]CC(C)(C)OC.[C-]#[N+]CC(C)(C)OC.[C-]#[N+]CC(C)(C)OC.[C-]#[N+]CC(C)(C)OC.[C-]#[N+]CC(C)(C)OC.[C-]#[N+]CC(C)(C)OC [sestamibi, Technetium-99m hexakis 2-methoxyisobutylisonitrile]															over 90%
